Test [1] addresses T1, 6-phosphofructo-1-kinase (PFK) (Rattus norvegicus, UniProt P30835).
T1 construct: purified rat liver 6-phosphofructo-1-kinase; from tissue; host or cells: rat liver
T1 sequence (P30835 2-780 limits assumed): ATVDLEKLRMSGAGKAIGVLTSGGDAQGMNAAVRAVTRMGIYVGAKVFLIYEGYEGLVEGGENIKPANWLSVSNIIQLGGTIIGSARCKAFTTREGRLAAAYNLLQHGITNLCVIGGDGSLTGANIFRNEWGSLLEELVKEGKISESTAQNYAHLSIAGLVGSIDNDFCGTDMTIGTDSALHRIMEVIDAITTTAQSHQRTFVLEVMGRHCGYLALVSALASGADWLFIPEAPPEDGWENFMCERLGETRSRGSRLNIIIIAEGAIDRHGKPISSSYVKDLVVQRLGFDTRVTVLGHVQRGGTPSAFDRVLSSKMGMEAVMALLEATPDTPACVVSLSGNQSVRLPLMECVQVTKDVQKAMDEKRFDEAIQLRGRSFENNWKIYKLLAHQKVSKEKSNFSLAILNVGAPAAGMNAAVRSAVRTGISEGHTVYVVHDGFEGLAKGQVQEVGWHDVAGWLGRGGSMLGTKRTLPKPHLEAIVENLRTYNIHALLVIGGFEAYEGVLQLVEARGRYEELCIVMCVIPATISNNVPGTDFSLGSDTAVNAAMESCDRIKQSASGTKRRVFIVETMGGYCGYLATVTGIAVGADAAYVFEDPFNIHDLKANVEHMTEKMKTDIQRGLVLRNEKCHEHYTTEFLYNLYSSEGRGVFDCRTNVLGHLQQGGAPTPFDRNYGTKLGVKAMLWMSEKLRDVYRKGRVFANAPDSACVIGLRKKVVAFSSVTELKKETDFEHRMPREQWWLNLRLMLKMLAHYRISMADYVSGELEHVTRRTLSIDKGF
Description: PFK stimulation, aldolase-coupled spectrophotometric assay. Conditions: stimulation of purified rat liver 6-phosphofructo-1-kinase; 0.2 mM fructose-6-phosphate, pH 7.3, 30° C.; read-out: PFK ED50. The test is classed as biochemical. As for the experimental part:
(§1) The novel compounds of this invention were tested for their ability to stimulate the enzyme 6-phosphofructo-1-kinase ("PFK") and for their ability to inhibit the enzyme fructose-1,6-bisphosphatase ("FBP") using the procedures described below.
Effects on the activity of PFK were determined using an aldolase-coupled, spectrophotometric assay. The assay mixture contained: […] N-tris-(hydroxymethyl)-methyl-2-aminoethanesulfonic acid, hydrochloride ("TES-HCl", pH 7.3); 1 mM ethylenediaminetetraacetic acid ("EDTA"); 6 mM magnesium chloride; 2.5 mM dithiothreitol; 0.165 mM nicotinamide adenine dinucleotide ("NADH"); 1 mM adenosine triphosphate ("ATP"); 0.04 U aldolase; 0.4 U triose phosphate isomerase; alpha-glycerolphosphate dehydrogenase (1.5 U/ml); 0.1 U of purified rat liver 6-phosphofructo-1-kinase; and various concentrations of the test compound, all in a final volume of 1 ml. The mixture was preincubated for 3 minutes at 30° C. and then the reaction was initiated with 0.2 mM fructose-6-phosphate. The rate of decrease in absorbance at 340 nm was measured at 30° C. with a recording spectrophotometer.

The target of test [2] is T2, fructose-1,6-bisphosphatase (FBP) (Rattus norvegicus, UniProt P19112).
T2 construct: purified rat liver FBP; from tissue; host or cells: rat liver
T2 sequence (P19112 2-363 limits assumed): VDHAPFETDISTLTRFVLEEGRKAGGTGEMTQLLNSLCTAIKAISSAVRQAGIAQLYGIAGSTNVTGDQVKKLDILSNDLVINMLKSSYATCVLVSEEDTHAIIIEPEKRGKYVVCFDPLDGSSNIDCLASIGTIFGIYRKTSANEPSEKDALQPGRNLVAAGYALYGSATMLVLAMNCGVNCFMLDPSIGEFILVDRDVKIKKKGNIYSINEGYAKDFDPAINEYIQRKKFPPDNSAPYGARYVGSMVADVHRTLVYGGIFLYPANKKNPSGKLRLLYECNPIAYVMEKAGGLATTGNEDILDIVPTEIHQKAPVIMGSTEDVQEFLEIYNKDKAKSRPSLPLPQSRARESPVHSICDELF
The test is described as follows: FBP inhibition, spectrophotometric assay. The test is classed as biochemical. The settings on record: inhibition of purified rat liver FBP; 0.02 mM fructose-1,6-bisphosphate, pH 7.4, 30° C. The method, then: as §1
Effects on the activity of FBP were determined using a spectrophotometric assay. The assay mixture contained 100 mM tris(hydroxymethyl)aminomethane,hydrochloride ("TRIS-HCl", pH 7.4); 2.5 mM betamercaptoethanol; 2 mM magnesium chloride; 0.05 mM EDTA; 0.2 mM nicotinamide adenine dinucleotide phosphate ("NADP"); 10 U phosphoglucose isomerase; 5 U glucose-6-phosphatedehydrogenase; 0.02 U of purified rat liver FBP; and various concentrations of the test compound, all in a final volume of 1 ml. The mixture was preincubated for 3 minutes at 30° C. and then the reaction was initiated with 0.02 mM fructose-1,6-bisphosphate. The rate of increase in absorbance at 340 nm was measured at 30° C. with a recording spectrophotometer.

As a reminder, the IC50 is the concentration that inhibits the measured activity by half. For `O=P(O)(O)C[C@@]1(CO)O[C@H](COP(=O)(O)O)[C@@H](O)[C@@H]1O` [2,5-Anhydro-1-deoxy-2-C-(hydroxymethyl)-1-phosphono-D-mannitol, 6-(dihydrogen phosphate)], in test [1], the EC50 is 6 µM. For the same compound, in test [2], the IC50 turned out to be 393 µM.
The corresponding values for `O=P(O)(O)C[C@]1(CO)O[C@H](COP(=O)(O)O)[C@@H](O)[C@@H]1O` [2,5-Anhydro-1-deoxy-2-C-(hydroxymethyl)-1-phosphono-D-glucitol, 6-(dihydrogen phosphate)] are 12 µM and 240 µM.
Regarding `O=P(O)(O)CC[C@H]1O[C@H](COP(=O)(O)O)[C@@H](O)[C@@H]1O` [3,6-Anhydro-1,2-dideoxy-1-phosphono-D-manno-heptitol, 7-(dihydrogen phosphate)], the EC50 in test [1] was 6 µM. Moreover, the IC50 in test [2] came to 80 µM.
Regarding `O=P(O)(O)CCC[C@H]1O[C@H](COP(=O)(O)O)[C@@H](O)[C@@H]1O` [4,7-anhydro-1,2,3-trideoxy-1-(dihydroxyphosphinyl)-D-manno-octitol, 8-(dihydrogen phosphate)], in test [1], the EC50 was 27 µM. 200 µM corresponded to half-maximal inhibition in test [2] (IC50).
Consider `O=P(O)(O)CCC[C@@H]1O[C@H](COP(=O)(O)O)[C@@H](O)[C@@H]1O` [4,7-Anhydro-1,2,3-trideoxy-1-(dihydroxyphosphinyl)-D-gluco-octitol, 8-(dihydrogen phosphate)], for which the EC50 in test [1] worked out at 12 µM.
On to `O=P(O)(O)C[C@H]1O[C@H](COP(=O)(O)O)[C@@H](O)[C@@H]1O` [2,5-Anhydro-1-deoxy-1-phosphono-D-mannitol, 6-(dihydrogen phosphate)], for which, in test [1], the EC50 worked out at 4 µM. In addition, inhibition in test [2] was half-maximal at 58 µM (IC50).
With `O=P(O)(O)C[C@@H]1O[C@H](COP(=O)(O)O)[C@@H](O)[C@@H]1O` [2,5-Anhydro-1-deoxy-1-phosphono-D-glucitol, 6-(dihydrogen phosphate)], in test [1], the EC50 turned out to be 20 µM. Also, the IC50 in test [2] is 602 µM.

(Values after patent US4945158A, “Antidiabetic phosphonates” (American Cyanamid Company, priority 1988, dated 1990).)
